Here are results for one compound from paper PMC11582173, “Synthesis, cytotoxicity, anti-inflammatory, anti-metastatic and anti-oxidant activities of novel chalcones incorporating 2-phenoxy-N-arylacetamide and thiophene moieties: induction of apoptosis in MCF7 and HEP2 cells” (Naunyn-Schmiedeberg's Archives of Pharmacology, 2024).

This test relates to KI-67 gene. The test can be described thus: Real-time PCR, KI-67 gene expression. The class given is cell-based, human. The conditions noted are these: relative to untreated control (1), normalized to GAPDH. Here is the method:
The expression level of the following six genes (Ki-67, Survivin, Interleukin-1 beta (IL-1B), Interleukin-6 (IL-6), Cyclooxygenase-2 (COX-2) and protein kinase B (AKT1)) was determined in MCF7 and HEP2 treated with the IC50 of compound 5c. The untreated cells were used as a negative control for comparison purposes. […] Ki-67 is a popular proliferation marker for human tumor cells. […] Survivin is an inhibitor of apoptotic protein (IAP) family member, which is essential for cell division. The lowering of the expression of survivin inhibited tumor development, triggered apoptosis, and made tumor cells more susceptible to radiation and chemotherapy (Albadari and Li [2023]). […] IL-1B is a pleiotropic mediator of inflammation, which is produced in response to a variety of stressors (Aarreberg et al. [2019]). […] IL-6 is a pro-inflammatory cytokine that plays a significant role in the proliferation and differentiation of human cells. It promotes the production of numerous proteins involved in acute inflammation (Uciechowski and Dempke [2020]). […]
The expression level of the following six genes (Ki-67, survivin, AKT1, IL-6, COX2, and IL-1B) was examined using real-time polymerase chain reaction (qPCR) (Mohamed et al. [2023a]). […] The cycle threshold (Ct) was determined automatically. […]
(In general: Quantitative PCR measures a nucleic acid by following its amplification.)

Regarding `COc1ccc(NC(=O)COc2ccc(C=CC(=O)c3cccs3)cc2)cc1` [Compound 5c, N-(4-Methoxyphenyl)-2-(4-(3-oxo-3-(thiophen-2-yl)prop-1-en-1-yl)phenoxy)acetamide], the KI67 expression folding is, setting by setting: (HEP2 cells treated with IC50 of 5c) 0.648±0.015 fold; (MCF7 cells treated with IC50 of 5c) 0.352±0.0172 fold.
